# Laboratory results taken from the supplement of paper PMC10307832.
# Legend:
# Test in all cases: relative viability (nuclei count vs DMSO), 5 days (fraction); higher = more cells survive
# [1] = test system: HCC-366
# Procedure, shortened: (§1)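 Dosing by pin tool came one day after lung cancer cell lines were seeded in 1536-well plates, using either one drug or a fixed anchor-drug dose plus five library-drug doses (not always all listed) in √10 steps. After 5 days, nuclei were counted on 4× images. Relative viability is treated-well nuclei count divided by vehicle-well nuclei count, and values are medians of duplicate plates.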
# [2] = test system: HCC-44
# Procedure, shortened: as §1
# [3] = test system: NCI-H1437
# Procedure, shortened: as §1
# [4] = test system: NCI-H3122
# Procedure, shortened: as §1
# [5] = test system: EBC-1
# Procedure, shortened: as §1
# [6] = test system: NCI-H2085
# Procedure, shortened: as §1
# [7] = test system: NCI-H1299
# Procedure, shortened: as §1
# [8] = test system: LOU-NH91
# Procedure, shortened: as §1
# [9] = test system: A549
# Procedure, shortened: as §1
# [10] = test system: NCI-H1703
# Procedure, shortened: as §1
# [11] = test system: IA-LM
# Procedure, shortened: as §1
# [12] = test system: Calu-6
# Procedure, shortened: as §1
structure (smiles),measurement,setting,value
O=c1cc(-c2cccc3c2Sc2ccccc2S3)oc(N2CCOCC2)c1 + C[C@]1(O)C[C@@H](c2nc(-c3ccc4ccc(-c5ccccc5)nc4c3)c3c(N)nccn32)C1 [Linsitinib] (partner 1 µM),relative viability,[1]; first compound 0.08 µM,0.605
same,relative viability,[1]; first compound 0.253 µM,1.07
same,relative viability,[1]; first compound 0.8 µM,0.711
same,relative viability,[1]; first compound 2.53 µM,0.744
same,relative viability,[1]; first compound 8 µM,0.573
same,relative viability,[2]; first compound 0.08 µM,0.681
same,relative viability,[2]; first compound 0.253 µM,0.532
same,relative viability,[2]; first compound 0.8 µM,0.696
same,relative viability,[2]; first compound 2.53 µM,0.623
same,relative viability,[2]; first compound 8 µM,0.548
same,relative viability,[3]; first compound 0.08 µM,1.12
same,relative viability,[3]; first compound 0.253 µM,1.49
same,relative viability,[3]; first compound 0.8 µM,1.15
same,relative viability,[3]; first compound 2.53 µM,0.997
same,relative viability,[3]; first compound 8 µM,1.12
same,relative viability,[4]; first compound 0.08 µM,1.07
same,relative viability,[4]; first compound 0.253 µM,1.16
same,relative viability,[4]; first compound 0.8 µM,1.06
same,relative viability,[4]; first compound 2.53 µM,0.99
same,relative viability,[4]; first compound 8 µM,1.07
same,relative viability,[5]; first compound 0.08 µM,0.706
same,relative viability,[5]; first compound 0.253 µM,1.14
same,relative viability,[5]; first compound 0.8 µM,0.828
same,relative viability,[5]; first compound 2.53 µM,0.871
same,relative viability,[5]; first compound 8 µM,0.91
same,relative viability,[6]; first compound 0.08 µM,0.812
same,relative viability,[6]; first compound 0.253 µM,0.911
same,relative viability,[6]; first compound 0.8 µM,0.925
same,relative viability,[6]; first compound 2.53 µM,0.846
same,relative viability,[6]; first compound 8 µM,0.595
same,relative viability,[7]; first compound 0.08 µM,0.987
same,relative viability,[7]; first compound 0.253 µM,1
same,relative viability,[7]; first compound 0.8 µM,1.05
same,relative viability,[7]; first compound 2.53 µM,1.03
same,relative viability,[7]; first compound 8 µM,0.984
same,relative viability,[8]; first compound 0.08 µM,0.946
same,relative viability,[8]; first compound 0.253 µM,0.923
same,relative viability,[8]; first compound 0.8 µM,0.845
same,relative viability,[8]; first compound 2.53 µM,0.769
same,relative viability,[8]; first compound 8 µM,0.893
same,relative viability,[9]; first compound 0.08 µM,0.586
same,relative viability,[9]; first compound 0.253 µM,0.863
same,relative viability,[9]; first compound 0.8 µM,0.564
same,relative viability,[9]; first compound 2.53 µM,0.583
same,relative viability,[9]; first compound 8 µM,0.666
same,relative viability,[10]; first compound 0.08 µM,0.237
same,relative viability,[10]; first compound 0.253 µM,0.636
same,relative viability,[10]; first compound 0.8 µM,1.02
same,relative viability,[10]; first compound 2.53 µM,0.779
same,relative viability,[10]; first compound 8 µM,0.636
same,relative viability,[11]; first compound 0.08 µM,0.695
same,relative viability,[11]; first compound 0.253 µM,0.919
same,relative viability,[11]; first compound 0.8 µM,0.491
same,relative viability,[11]; first compound 2.53 µM,0.465
same,relative viability,[11]; first compound 8 µM,0.343
same,relative viability,[12]; first compound 0.08 µM,0.909
same,relative viability,[12]; first compound 0.253 µM,1.08
same,relative viability,[12]; first compound 0.8 µM,0.988
same,relative viability,[12]; first compound 2.53 µM,0.934
same,relative viability,[12]; first compound 8 µM,1.02
O=c1cc(N2CCOCC2)oc2c(-c3cccc4c3sc3ccccc34)cccc12 + Cc1nc(NC(=O)N2CCC[C@H]2C(N)=O)sc1-c1ccnc(C(C)(C)C(F)(F)F)c1 [Alpelisib] (partner 2 µM),relative viability,[1]; first compound 0.01 µM,0.386
same,relative viability,[1]; first compound 0.03162 µM,0.469
same,relative viability,[1]; first compound 0.1 µM,0.44
same,relative viability,[1]; first compound 0.3162 µM,0.372
same,relative viability,[1]; first compound 1 µM,0.367
same,relative viability,[2]; first compound 0.01 µM,0.841
same,relative viability,[2]; first compound 0.03162 µM,0.841
same,relative viability,[2]; first compound 0.1 µM,0.826
same,relative viability,[2]; first compound 0.3162 µM,0.708
same,relative viability,[2]; first compound 1 µM,0.697
same,relative viability,[3]; first compound 0.01 µM,0.931
same,relative viability,[3]; first compound 0.03162 µM,0.937
same,relative viability,[3]; first compound 0.1 µM,1.02
same,relative viability,[3]; first compound 0.3162 µM,0.993
same,relative viability,[3]; first compound 1 µM,0.95
same,relative viability,[4]; first compound 0.01 µM,0.868
same,relative viability,[4]; first compound 0.03162 µM,0.729
same,relative viability,[4]; first compound 0.1 µM,0.839
same,relative viability,[4]; first compound 0.3162 µM,0.756
same,relative viability,[4]; first compound 1 µM,0.713
same,relative viability,[5]; first compound 0.01 µM,0.977
same,relative viability,[5]; first compound 0.03162 µM,0.77
same,relative viability,[5]; first compound 0.1 µM,0.837
same,relative viability,[5]; first compound 0.3162 µM,0.966
same,relative viability,[5]; first compound 1 µM,0.827
same,relative viability,[6]; first compound 0.01 µM,0.941
same,relative viability,[6]; first compound 0.03162 µM,0.902
same,relative viability,[6]; first compound 0.1 µM,1.02
same,relative viability,[6]; first compound 0.3162 µM,0.919
same,relative viability,[6]; first compound 1 µM,0.983
same,relative viability,[7]; first compound 0.01 µM,1.05
same,relative viability,[7]; first compound 0.03162 µM,1.07
same,relative viability,[7]; first compound 0.1 µM,1.11
same,relative viability,[7]; first compound 0.3162 µM,1.09
same,relative viability,[7]; first compound 1 µM,1.09
same,relative viability,[8]; first compound 0.01 µM,0.656
same,relative viability,[8]; first compound 0.03162 µM,0.698
same,relative viability,[8]; first compound 0.1 µM,0.726
same,relative viability,[8]; first compound 0.3162 µM,0.759
same,relative viability,[8]; first compound 1 µM,0.69
same,relative viability,[9]; first compound 0.01 µM,0.866
same,relative viability,[9]; first compound 0.03162 µM,0.775
same,relative viability,[9]; first compound 0.1 µM,0.814
same,relative viability,[9]; first compound 0.3162 µM,0.811
same,relative viability,[9]; first compound 1 µM,0.845
same,relative viability,[10]; first compound 0.01 µM,0.538
same,relative viability,[10]; first compound 0.03162 µM,0.33
same,relative viability,[10]; first compound 0.1 µM,0.331
same,relative viability,[10]; first compound 0.3162 µM,0.317
same,relative viability,[10]; first compound 1 µM,0.317
same,relative viability,[11]; first compound 0.01 µM,0.837
same,relative viability,[11]; first compound 0.03162 µM,0.769
same,relative viability,[11]; first compound 0.1 µM,0.828
same,relative viability,[11]; first compound 0.3162 µM,0.736
same,relative viability,[11]; first compound 1 µM,0.735
same,relative viability,[12]; first compound 0.01 µM,0.98
same,relative viability,[12]; first compound 0.03162 µM,1.05
same,relative viability,[12]; first compound 0.1 µM,1.01
same,relative viability,[12]; first compound 0.3162 µM,1.04
same,relative viability,[12]; first compound 1 µM,0.974
